Reference: ChEMBL document CHEMBL1154954, “Synthesis and in vitro evaluation of (18)F-labelled S-fluoroalkyl diarylguanidines: Novel high-affinity NMDA receptor antagonists for imaging with PET” (Bioorg Med Chem Lett, 2010)
The source made the active and inactive calls. The calls are words filed in the database; no cut-off is given here.

Key:
[1] = target: Glutamate NMDA receptor; assay: Displacement of [3H]TCP from NMDA receptor PCP binding site in rat cerebral cortex homogenate; type: tissue-based
[2] = Binding affinity to NMDA receptor PCP binding site
[3] = Distribution coefficient, log D at pH 7.5; type: physicochemical; details: octanol/water
[4] = target: Voltage-gated inwardly rectifying potassium channel KCNH2 (Homo sapiens, UniProt Q12809); assay: Inhibition of human ERG at 10 nM; details: 0.01 µM
Chain of Voltage-gated inwardly rectifying potassium channel KCNH2 (Q12809 whole entry): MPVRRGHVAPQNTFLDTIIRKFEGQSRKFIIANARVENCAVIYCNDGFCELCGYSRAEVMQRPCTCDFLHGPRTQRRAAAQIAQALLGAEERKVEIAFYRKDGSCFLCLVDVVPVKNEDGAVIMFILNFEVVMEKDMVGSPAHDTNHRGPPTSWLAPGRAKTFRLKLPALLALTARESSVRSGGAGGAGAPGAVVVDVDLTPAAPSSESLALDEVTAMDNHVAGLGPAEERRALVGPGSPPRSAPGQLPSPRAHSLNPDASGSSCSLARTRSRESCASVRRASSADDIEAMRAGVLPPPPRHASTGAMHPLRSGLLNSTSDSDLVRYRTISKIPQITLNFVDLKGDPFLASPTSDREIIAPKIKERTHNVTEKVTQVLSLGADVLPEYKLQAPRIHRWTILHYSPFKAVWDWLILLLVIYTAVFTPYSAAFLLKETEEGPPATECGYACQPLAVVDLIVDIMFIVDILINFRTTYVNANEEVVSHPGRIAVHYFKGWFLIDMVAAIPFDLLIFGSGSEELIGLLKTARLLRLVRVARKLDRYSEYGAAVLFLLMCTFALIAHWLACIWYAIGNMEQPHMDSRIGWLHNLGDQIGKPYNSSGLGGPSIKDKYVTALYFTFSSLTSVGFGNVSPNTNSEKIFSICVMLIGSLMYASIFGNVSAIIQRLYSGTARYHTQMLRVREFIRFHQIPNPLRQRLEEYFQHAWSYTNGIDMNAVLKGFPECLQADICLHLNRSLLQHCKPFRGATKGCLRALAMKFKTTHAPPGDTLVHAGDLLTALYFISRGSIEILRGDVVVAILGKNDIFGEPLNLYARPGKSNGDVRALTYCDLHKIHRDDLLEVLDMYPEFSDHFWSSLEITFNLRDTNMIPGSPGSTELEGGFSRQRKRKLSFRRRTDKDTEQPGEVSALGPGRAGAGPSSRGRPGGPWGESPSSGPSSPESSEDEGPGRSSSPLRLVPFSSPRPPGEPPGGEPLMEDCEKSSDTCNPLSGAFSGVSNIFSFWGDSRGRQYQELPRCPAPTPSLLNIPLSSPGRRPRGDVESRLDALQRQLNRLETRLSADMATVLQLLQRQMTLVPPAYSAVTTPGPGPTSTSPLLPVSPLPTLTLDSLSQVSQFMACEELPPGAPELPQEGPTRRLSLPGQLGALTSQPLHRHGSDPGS

[5] = Octanol-phosphate buffer partition coefficient, log D at pH 7.4; type: physicochemical
[6] = target: hERG (KCNH2) (Homo sapiens, UniProt Q12809); assay: Inhibition of human ERG at 1 uM
Chain of hERG (KCNH2) (Q12809 whole entry): as above

[7] = Inhibition of voltage gated sodium channel site 2 at 1 uM; details: tested as the 18F-labelled form
[8] = target: Sigma non-opioid intracellular receptor 1 (Homo sapiens) (UniProt Q99720); assay: Inhibition of sigma 1 receptor at 1 uM; details: tested as the 18F-labelled form
Chain of Sigma non-opioid intracellular receptor 1 (Homo sapiens) (Q99720 whole entry): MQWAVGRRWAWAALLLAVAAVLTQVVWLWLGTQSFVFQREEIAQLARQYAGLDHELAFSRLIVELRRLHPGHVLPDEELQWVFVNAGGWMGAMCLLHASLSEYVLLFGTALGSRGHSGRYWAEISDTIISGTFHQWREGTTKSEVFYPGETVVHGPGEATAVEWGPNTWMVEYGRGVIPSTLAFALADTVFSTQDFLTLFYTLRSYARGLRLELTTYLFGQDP

[9] = Inhibition of sigma 2 receptor at 1 uM; details: tested as the 18F-labelled form
[10] = target: Sodium-dependent noradrenaline transporter (Homo sapiens) (UniProt P23975); assay: Inhibition of norepinephrine transporter at 1 uM; details: tested as the 18F-labelled form
Chain of Sodium-dependent noradrenaline transporter (Homo sapiens) (P23975 whole entry): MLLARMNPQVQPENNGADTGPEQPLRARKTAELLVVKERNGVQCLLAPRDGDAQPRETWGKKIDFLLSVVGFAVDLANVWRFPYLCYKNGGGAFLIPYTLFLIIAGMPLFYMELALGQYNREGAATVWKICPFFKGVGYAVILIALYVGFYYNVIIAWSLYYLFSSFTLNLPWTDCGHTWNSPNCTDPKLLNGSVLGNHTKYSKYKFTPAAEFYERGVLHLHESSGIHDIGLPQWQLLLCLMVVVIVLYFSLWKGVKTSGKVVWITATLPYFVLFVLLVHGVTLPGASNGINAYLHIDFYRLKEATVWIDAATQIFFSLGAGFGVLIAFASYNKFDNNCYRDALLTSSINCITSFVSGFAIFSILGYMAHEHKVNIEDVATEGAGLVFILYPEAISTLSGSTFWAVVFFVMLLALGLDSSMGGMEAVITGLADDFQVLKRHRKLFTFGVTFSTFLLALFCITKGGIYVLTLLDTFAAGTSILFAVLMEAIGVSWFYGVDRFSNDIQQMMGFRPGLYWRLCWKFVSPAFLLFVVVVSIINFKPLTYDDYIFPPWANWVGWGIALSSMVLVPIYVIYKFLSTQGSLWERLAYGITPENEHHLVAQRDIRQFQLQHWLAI

[11] = Inhibition of GABA A receptor at 1 uM; details: tested as the 18F-labelled form
[12] = target: 5-hydroxytryptamine receptor 5A (Homo sapiens) (UniProt P47898); assay: Inhibition of 5HT5A receptor at 1 uM; details: tested as the 18F-labelled form
Chain of 5-hydroxytryptamine receptor 5A (Homo sapiens) (P47898 whole entry): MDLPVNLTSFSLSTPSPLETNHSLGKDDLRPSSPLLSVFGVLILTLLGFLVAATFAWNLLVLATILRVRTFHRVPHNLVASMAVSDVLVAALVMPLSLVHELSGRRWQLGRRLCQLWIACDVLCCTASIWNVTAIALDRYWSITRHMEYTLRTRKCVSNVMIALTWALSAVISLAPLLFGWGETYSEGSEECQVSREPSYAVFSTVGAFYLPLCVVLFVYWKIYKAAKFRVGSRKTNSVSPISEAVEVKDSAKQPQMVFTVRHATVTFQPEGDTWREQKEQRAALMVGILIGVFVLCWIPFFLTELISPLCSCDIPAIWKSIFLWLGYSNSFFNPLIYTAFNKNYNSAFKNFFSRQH

[13] = Inhibition of opioid receptor at 1 uM; details: tested as the 18F-labelled form
[14] = Inhibition of voltage gated sodium channel site 2 at 10 nM; details: tested as the 18F-labelled form
[15] = target: Sigma non-opioid intracellular receptor 1 (Homo sapiens) (UniProt Q99720); assay: Inhibition of sigma 1 receptor at 10 nM; details: tested as the 18F-labelled form
[16] = Inhibition of sigma 2 receptor at 10 nM; details: tested as the 18F-labelled form
[17] = target: Sodium-dependent noradrenaline transporter (Homo sapiens) (UniProt P23975); assay: Inhibition of norepinephrine transporter at 10 nM; details: tested as the 18F-labelled form
[18] = Inhibition of GABA A receptor at 10 nM; details: tested as the 18F-labelled form
[19] = target: 5-hydroxytryptamine receptor 5A (Homo sapiens) (UniProt P47898); assay: Inhibition of 5HT5A receptor at 10 nM; details: tested as the 18F-labelled form
[20] = Inhibition of opioid receptor at 10 nM; details: tested as the 18F-labelled form
[21] = Lipophilicity, log D of the compound; type: physicochemical; details: octanol/water

SMILES: CSc1ccc(Cl)c(NC(=N)N(C)c2cccc(S[11CH3])c2)c1
- Kd [1]: 1.78 nM
- Kd [2]: 1.9 nM
- logD [3]: 2.68

SMILES: CSc1cccc(N(C)C(=N)Nc2cc(SCC[18F])ccc2Cl)c1
- Activity [4]: Not Active
- Kd [1]: 2.35 nM
- logD [5]: 2.49
- inhibition at 1 µM [6]: 56%

SMILES: CSc1cccc(N(C)C(=N)Nc2cc(SC[18F])ccc2Cl)c1
- Kd [1]: 1.38 nM

SMILES: CSc1cccc(N(C)C(=N)Nc2cc(SCCF)ccc2Cl)c1
- inhibition [7]: 47%
- Activity [8]: Active
- Activity [9]: Active
- Activity [10]: Active
- Activity [11]: Active
- Activity [12]: Active
- Activity [13]: Active
- Activity [14]: inactive
- Activity [15]: inactive
- Activity [16]: inactive
- Activity [17]: inactive
- Activity [18]: inactive
- Activity [19]: inactive
- Activity [20]: inactive

SMILES: CN(C(=N)Nc1cccc2ccccc12)c1cccc([123I])c1
- Kd [2]: 4.2 nM
- logD [21]: 2.19

SMILES: [18F]CCc1ccc(C2(N3CCCCC3)CCCCC2)s1
- Kd [2]: 38 nM

SMILES: [11CH3]NC1(c2ccccc2)CCCCC1=O (centres undefined) [[11C]KETAMINE]
- Kd [2]: 1200 nM

SMILES: [18F]CC12NC(Cc3ccccc31)c1ccccc12 (centres undefined)
- Kd [2]: 79 nM

SMILES: C[C@]12C[C@@H]3C[C@](N)(C1)C[C@@](C[18F])(C3)C2
- IC50 [2]: 6000 nM

SMILES: CSc1ccc(Cl)c(NC(=N)N(C)c2cccc(O[11CH3])c2)c1
- Kd [2]: 5.2 nM
